# What was measured:
# [1] = target: Angiotensin-converting enzyme (Homo sapiens) (UniProt P12821); assay: ACE (h) Eurofins-Cerep enzyme and uptake assay; settings: Compound concentration 10.0 uM
# [2] = target: Substance-K receptor (Homo sapiens) (UniProt P21452); assay: NK2 (h) Eurofins-Cerep binding assay; design: ligand concentration 0.1 nM; settings: filed as agonist, Compound concentration 10.0 uM
# [3] = target: 5-hydroxytryptamine receptor 1B (Homo sapiens) (UniProt P28222); assay: 5-HT1B(h) Eurofins-Cerep binding assay; design: ligand concentration 1 nM; settings: filed as antagonist, Compound concentration 10.0 uM
# 5-hydroxytryptamine receptor 1B (Homo sapiens), sequence (P28222 whole entry): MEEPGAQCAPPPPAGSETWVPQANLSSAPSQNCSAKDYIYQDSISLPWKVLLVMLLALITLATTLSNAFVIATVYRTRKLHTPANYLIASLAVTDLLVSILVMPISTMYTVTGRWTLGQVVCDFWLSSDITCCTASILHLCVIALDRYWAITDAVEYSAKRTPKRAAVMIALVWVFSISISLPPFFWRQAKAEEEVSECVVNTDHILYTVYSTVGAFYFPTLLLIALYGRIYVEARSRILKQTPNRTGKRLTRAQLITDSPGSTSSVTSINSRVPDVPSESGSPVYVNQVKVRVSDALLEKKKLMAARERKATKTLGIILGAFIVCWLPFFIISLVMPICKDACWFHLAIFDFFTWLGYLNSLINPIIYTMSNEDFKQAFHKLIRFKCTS
# [4] = target: Sulfonylurea receptors; K-ATP channels (Rattus norvegicus) (UniProt Q63563+P70673+Q63664+Q09429); assay: KATP channel Eurofins-Cerep binding assay; assay type: protein-complex assay; design: ligand concentration 0.1 nM; settings: filed as antagonist, Compound concentration 10.0 uM
# [5] = test system: Tyrosine-protein kinase ABL1 (Homo sapiens), P00519 [F317I]; settings: Compound concentration 1000.0 nM
# Tyrosine-protein kinase ABL1 (Homo sapiens), P00519 [F317I], sequence (P00519 whole entry F317I): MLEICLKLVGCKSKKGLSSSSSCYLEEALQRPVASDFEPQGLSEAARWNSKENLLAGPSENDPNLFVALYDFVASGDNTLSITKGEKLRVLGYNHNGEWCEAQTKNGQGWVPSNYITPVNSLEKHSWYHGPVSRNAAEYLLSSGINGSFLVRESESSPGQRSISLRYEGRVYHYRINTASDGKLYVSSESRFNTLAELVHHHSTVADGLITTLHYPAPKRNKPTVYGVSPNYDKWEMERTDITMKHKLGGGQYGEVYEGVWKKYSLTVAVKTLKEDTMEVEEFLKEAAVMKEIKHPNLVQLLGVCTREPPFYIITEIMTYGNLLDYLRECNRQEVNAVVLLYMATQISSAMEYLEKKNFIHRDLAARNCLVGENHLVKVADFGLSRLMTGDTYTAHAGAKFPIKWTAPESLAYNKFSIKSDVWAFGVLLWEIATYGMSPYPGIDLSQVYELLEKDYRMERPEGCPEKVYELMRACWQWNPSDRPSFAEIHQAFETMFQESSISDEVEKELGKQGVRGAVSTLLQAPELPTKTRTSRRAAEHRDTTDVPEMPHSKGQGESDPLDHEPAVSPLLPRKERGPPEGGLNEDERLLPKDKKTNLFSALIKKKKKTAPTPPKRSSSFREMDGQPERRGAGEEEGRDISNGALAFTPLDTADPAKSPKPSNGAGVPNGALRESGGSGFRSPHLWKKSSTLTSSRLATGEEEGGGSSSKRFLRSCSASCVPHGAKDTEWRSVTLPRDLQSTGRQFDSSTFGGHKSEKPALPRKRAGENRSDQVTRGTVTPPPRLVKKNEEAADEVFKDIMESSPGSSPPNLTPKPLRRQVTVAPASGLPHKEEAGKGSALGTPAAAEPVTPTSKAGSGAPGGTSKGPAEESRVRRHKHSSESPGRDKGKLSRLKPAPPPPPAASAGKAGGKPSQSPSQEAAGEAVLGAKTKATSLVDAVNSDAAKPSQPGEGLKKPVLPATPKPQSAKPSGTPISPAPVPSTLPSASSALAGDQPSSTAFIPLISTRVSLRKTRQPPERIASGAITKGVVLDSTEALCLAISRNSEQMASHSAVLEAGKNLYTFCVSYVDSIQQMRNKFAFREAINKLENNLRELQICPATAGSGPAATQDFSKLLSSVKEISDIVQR
# [6] = test system: Tyrosine-protein kinase ABL1 (Homo sapiens), P00519 [F317L]; settings: Compound concentration 1000.0 nM
# Tyrosine-protein kinase ABL1 (Homo sapiens), P00519 [F317L], sequence (P00519 whole entry F317L): as the sequence (P00519 whole entry F317I) above, with I317L counted along it
# [7] = test system: Tyrosine-protein kinase ABL1 (Homo sapiens), P00519 [F317L]; settings: Compound concentration 1000.0 nM; remark: listed apart in the source
# [8] = target: Mitogen-activated protein kinase kinase kinase 6 (Homo sapiens) (UniProt O95382); settings: Compound concentration 1000.0 nM
# [9] = target: Tyrosine-protein kinase receptor UFO (Homo sapiens) (UniProt P30530); settings: Compound concentration 1000.0 nM
# [10] = test system: Serine/threonine-protein kinase B-raf (Homo sapiens), P15056 [V600E]; settings: Compound concentration 1000.0 nM
# [11] = target: Cyclin-dependent kinase 7 (Homo sapiens) (UniProt P50613); settings: Compound concentration 1000.0 nM
# [12] = target: Cyclin-dependent kinase 9 (Homo sapiens) (UniProt P50750); settings: Compound concentration 1000.0 nM
# [13] = target: Casein kinase II subunit alpha (Homo sapiens) (UniProt P68400); settings: Compound concentration 1000.0 nM
# [14] = target: Serine/threonine-protein kinase DCLK3 (Homo sapiens) (UniProt Q9C098); settings: Compound concentration 1000.0 nM
# [15] = target: Serine/threonine-protein kinase 17B (Homo sapiens) (UniProt O94768); settings: Compound concentration 1000.0 nM
# [16] = test system: Epidermal growth factor receptor (Homo sapiens), P00533 [UNDEFINED MUTATION]; settings: Compound concentration 1000.0 nM
# Epidermal growth factor receptor (Homo sapiens), P00533 [UNDEFINED MUTATION], sequence (P00533 whole entry, looked up, change not shown): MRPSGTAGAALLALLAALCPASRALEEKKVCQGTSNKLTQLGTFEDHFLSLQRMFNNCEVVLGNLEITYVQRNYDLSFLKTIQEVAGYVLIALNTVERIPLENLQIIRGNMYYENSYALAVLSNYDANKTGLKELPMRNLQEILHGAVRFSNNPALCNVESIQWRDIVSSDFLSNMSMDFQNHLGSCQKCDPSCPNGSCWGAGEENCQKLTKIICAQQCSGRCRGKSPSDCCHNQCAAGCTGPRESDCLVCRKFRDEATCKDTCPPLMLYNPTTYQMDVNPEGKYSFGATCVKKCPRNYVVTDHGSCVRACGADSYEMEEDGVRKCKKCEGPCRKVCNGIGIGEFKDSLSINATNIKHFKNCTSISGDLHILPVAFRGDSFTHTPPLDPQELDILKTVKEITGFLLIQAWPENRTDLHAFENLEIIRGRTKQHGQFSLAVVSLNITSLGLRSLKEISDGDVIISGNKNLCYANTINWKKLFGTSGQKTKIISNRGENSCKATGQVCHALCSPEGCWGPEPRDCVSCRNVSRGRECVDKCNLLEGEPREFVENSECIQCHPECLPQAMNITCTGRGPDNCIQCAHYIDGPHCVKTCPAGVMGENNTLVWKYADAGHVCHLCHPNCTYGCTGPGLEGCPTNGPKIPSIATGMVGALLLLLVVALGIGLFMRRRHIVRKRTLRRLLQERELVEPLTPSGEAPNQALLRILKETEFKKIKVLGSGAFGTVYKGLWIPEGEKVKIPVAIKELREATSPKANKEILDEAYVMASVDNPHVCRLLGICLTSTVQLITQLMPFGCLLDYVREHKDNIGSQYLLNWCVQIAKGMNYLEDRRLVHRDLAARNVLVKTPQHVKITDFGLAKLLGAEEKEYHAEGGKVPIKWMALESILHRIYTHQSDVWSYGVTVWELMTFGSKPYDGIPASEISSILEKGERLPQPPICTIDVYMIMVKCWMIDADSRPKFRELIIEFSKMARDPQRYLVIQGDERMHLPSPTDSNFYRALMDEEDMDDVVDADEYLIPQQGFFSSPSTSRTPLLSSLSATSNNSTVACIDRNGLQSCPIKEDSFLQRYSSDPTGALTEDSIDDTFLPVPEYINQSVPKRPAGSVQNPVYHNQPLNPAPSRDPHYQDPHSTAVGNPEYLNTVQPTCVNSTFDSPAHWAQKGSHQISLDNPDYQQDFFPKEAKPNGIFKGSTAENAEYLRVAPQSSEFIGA
# [17] = target: Mitogen-activated protein kinase 1 (Homo sapiens) (UniProt P28482); settings: Compound concentration 1000.0 nM
# [18] = target: Fibroblast growth factor receptor 2 (Homo sapiens) (UniProt P21802); settings: Compound concentration 1000.0 nM
# [19] = target: Receptor-type tyrosine-protein kinase FLT3 (Homo sapiens) (UniProt P36888); settings: Compound concentration 1000.0 nM
# Receptor-type tyrosine-protein kinase FLT3 (Homo sapiens), sequence (P36888 whole entry): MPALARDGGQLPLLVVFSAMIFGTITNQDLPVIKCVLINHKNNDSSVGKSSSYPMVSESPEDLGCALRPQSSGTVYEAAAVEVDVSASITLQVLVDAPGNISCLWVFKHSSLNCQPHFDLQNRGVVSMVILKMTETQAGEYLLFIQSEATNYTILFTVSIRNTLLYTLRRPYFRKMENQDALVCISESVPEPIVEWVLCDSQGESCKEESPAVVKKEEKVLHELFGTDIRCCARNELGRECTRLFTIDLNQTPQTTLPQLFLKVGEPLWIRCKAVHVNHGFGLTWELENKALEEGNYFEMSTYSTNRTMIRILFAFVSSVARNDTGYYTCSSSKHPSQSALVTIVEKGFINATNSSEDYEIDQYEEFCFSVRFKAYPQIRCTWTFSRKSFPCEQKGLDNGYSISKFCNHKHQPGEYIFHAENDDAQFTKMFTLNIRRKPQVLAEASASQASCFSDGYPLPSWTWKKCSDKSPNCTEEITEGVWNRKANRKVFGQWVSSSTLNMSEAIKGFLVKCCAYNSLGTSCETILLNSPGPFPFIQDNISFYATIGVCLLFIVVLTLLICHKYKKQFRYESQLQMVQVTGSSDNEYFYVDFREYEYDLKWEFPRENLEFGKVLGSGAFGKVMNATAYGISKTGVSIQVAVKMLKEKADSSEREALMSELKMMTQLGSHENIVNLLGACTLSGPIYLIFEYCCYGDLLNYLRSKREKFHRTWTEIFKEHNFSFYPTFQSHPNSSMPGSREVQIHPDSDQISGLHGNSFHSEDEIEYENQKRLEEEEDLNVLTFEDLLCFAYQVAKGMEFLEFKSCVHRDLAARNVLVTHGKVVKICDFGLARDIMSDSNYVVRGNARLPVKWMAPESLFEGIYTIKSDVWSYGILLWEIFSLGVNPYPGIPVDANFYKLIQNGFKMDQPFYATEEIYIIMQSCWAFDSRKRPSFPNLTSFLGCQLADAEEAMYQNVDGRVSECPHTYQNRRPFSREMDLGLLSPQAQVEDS
# [20] = test system: Receptor-type tyrosine-protein kinase FLT3 (Homo sapiens), P36888 [UNDEFINED MUTATION]; settings: Compound concentration 1000.0 nM
# Receptor-type tyrosine-protein kinase FLT3 (Homo sapiens), P36888 [UNDEFINED MUTATION], sequence (P36888 whole entry, looked up, change not shown): as the sequence (P36888 whole entry) above
# [21] = target: G protein-coupled receptor kinase 4 (Homo sapiens) (UniProt P32298); settings: Compound concentration 1000.0 nM
# G protein-coupled receptor kinase 4 (Homo sapiens), sequence (P32298 whole entry, looked up): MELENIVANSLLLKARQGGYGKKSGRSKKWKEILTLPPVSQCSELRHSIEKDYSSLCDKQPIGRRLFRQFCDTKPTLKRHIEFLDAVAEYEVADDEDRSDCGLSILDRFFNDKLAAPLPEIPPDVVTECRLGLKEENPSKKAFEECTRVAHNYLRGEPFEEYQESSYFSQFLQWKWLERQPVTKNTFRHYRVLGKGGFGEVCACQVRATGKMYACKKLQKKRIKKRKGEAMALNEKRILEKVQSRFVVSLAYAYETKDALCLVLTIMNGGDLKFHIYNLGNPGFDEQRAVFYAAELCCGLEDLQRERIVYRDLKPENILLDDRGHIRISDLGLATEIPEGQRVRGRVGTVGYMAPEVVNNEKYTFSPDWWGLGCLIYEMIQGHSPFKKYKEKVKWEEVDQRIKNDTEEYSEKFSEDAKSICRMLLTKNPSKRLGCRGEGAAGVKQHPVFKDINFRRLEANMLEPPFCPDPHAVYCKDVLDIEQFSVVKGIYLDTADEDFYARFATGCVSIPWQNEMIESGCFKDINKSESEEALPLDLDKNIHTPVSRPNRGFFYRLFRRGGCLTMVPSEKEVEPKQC
# [22] = target: Glycogen synthase kinase-3 beta (Homo sapiens) (UniProt P49841); settings: Compound concentration 1000.0 nM
# [23] = target: Homeodomain-interacting protein kinase 2 (Homo sapiens) (UniProt Q9H2X6); settings: Compound concentration 1000.0 nM
# [24] = test system: Mast/stem cell growth factor receptor Kit (Homo sapiens), P10721 [V559D,T670I]; settings: Compound concentration 1000.0 nM
# [25] = target: Mitogen-activated protein kinase kinase kinase 1 (Homo sapiens) (UniProt Q13233); settings: Compound concentration 1000.0 nM
# [26] = target: Dual specificity mitogen-activated protein kinase kinase 5 (Homo sapiens) (UniProt Q13163); settings: Compound concentration 1000.0 nM
# [27] = target: Mitogen-activated protein kinase kinase kinase 10 (Homo sapiens) (UniProt Q02779); settings: Compound concentration 1000.0 nM
# [28] = target: Serine/threonine-protein kinase Nek9 (Homo sapiens) (UniProt Q8TD19); settings: Compound concentration 1000.0 nM
# [29] = target: Serine/threonine-protein kinase NIM1 (Homo sapiens) (UniProt Q8IY84); settings: Compound concentration 1000.0 nM
# [30] = target: Serine/threonine-protein kinase PAK 1 (Homo sapiens) (UniProt Q13153); settings: Compound concentration 1000.0 nM
# [31] = target: Cyclin-dependent kinase 2 homolog (Plasmodium falciparum (isolate 3D7)) (UniProt P61075); settings: Compound concentration 1000.0 nM
# [32] = test system: Phosphatidylinositol 4,5-bisphosphate 3-kinase catalytic subunit alpha isoform (Homo sapiens), P42336 [C420R]; settings: Compound concentration 1000.0 nM
# [33] = test system: Phosphatidylinositol 4,5-bisphosphate 3-kinase catalytic subunit alpha isoform (Homo sapiens), P42336 [E545K]; settings: Compound concentration 1000.0 nM
# [34] = test system: Phosphatidylinositol 4,5-bisphosphate 3-kinase catalytic subunit alpha isoform (Homo sapiens), P42336 [H1047Y]; settings: Compound concentration 1000.0 nM
# [35] = target: Serine/threonine-protein kinase D1 (Homo sapiens) (UniProt Q15139); settings: Compound concentration 1000.0 nM
# [36] = target: Proto-oncogene tyrosine-protein kinase receptor Ret (Homo sapiens) (UniProt P07949); settings: Compound concentration 1000.0 nM
# [37] = target: Serine/threonine-protein kinase Sgk2 (Homo sapiens) (UniProt Q9HBY8); settings: Compound concentration 1000.0 nM
# [38] = target: Serine/threonine-protein kinase Sgk3 (Homo sapiens) (UniProt Q96BR1); settings: Compound concentration 1000.0 nM
# [39] = target: STE20-like serine/threonine-protein kinase (Homo sapiens) (UniProt Q9H2G2); settings: Compound concentration 1000.0 nM
# [40] = target: Serine/threonine-protein kinase 16 (Homo sapiens) (UniProt O75716); settings: Compound concentration 1000.0 nM
# [41] = target: TRAF2 and NCK-interacting protein kinase (Homo sapiens) (UniProt Q9UKE5); settings: Compound concentration 1000.0 nM
# [42] = target: Non-receptor tyrosine-protein kinase TYK2 (Homo sapiens) (UniProt P29597); settings: Compound concentration 1000.0 nM
# [43] = target: Tyrosine-protein kinase ZAP-70 (Homo sapiens) (UniProt P43403); settings: Compound concentration 1000.0 nM
# Tyrosine-protein kinase ZAP-70 (Homo sapiens), sequence (P43403 whole entry): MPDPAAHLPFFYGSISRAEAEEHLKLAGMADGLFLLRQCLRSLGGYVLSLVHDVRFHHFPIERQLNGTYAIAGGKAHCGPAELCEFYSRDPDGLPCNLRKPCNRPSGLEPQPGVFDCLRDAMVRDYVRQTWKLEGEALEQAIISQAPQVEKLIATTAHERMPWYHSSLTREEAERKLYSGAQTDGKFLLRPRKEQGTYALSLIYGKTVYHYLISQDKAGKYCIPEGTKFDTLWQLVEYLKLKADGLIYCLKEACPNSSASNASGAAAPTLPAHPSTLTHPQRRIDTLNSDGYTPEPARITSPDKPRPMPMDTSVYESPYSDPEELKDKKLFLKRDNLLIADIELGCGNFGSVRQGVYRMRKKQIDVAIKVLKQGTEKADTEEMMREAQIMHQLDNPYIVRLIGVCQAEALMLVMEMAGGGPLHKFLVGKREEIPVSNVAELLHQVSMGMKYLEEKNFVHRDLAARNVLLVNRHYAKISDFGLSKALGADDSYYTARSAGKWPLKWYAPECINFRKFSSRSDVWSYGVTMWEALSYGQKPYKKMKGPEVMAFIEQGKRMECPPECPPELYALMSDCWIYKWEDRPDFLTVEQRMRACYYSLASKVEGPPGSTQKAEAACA
# Rattus norvegicus = species: Rattus norvegicus; settings: Compound concentration 10.0 uM
smiles,measurement,setting,value
O=C(NS(=O)(=O)c1ccc(NCC2CCOCC2)c([N+](=O)[O-])c1)c1ccc(N2CCN(Cc3ccc(C(F)(F)F)cc3-c3ccc(Cl)cc3)CC2)cc1Oc1cnc2[nH]ccc2c1 [A-1210227],% Inhibition of Control Values (Mean n=2),[1],-32.2%
same,% Inhibition of Control Specific Binding (Mean n=2),[2],-2.4%
same,% Inhibition of Control Specific Binding (Mean n=2),[3],-4.9%
same,% Inhibition of Control Specific Binding (Mean n=2),[4],9.9%
same,residual activity,[5],87%
same,residual activity,[6],91%
same,residual activity,[7],100%
same,residual activity,[8],80%
same,residual activity,[9],88%
same,residual activity,[10],83%
same,residual activity,[11],96%
same,residual activity,[12],100%
same,residual activity,[13],83%
same,residual activity,[14],93%
same,residual activity,[15],100%
same,residual activity,[16],81%
same,residual activity,[17],87%
same,residual activity,[18],100%
same,residual activity,[19],80%
same,residual activity,[20],66%
same,residual activity,[21],100%
same,residual activity,[22],100%
same,residual activity,[23],100%
same,residual activity,[24],100%
same,residual activity,[25],100%
same,residual activity,[26],75%
same,residual activity,[27],95%
same,residual activity,[28],100%
same,residual activity,[29],94%
same,residual activity,[30],100%
same,residual activity,[31],100%
same,residual activity,[32],81%
same,residual activity,[33],100%
same,residual activity,[34],67%
same,residual activity,[35],89%
same,residual activity,[36],96%
same,residual activity,[37],100%
same,residual activity,[38],92%
same,residual activity,[39],100%
same,residual activity,[40],91%
same,residual activity,[41],100%
same,residual activity,[42],84%
same,residual activity,[43],82%
same,inhibition,Rattus norvegicus,11.6%
CO[C@H]1CC[C@H](CNc2ccc(S(=O)(=O)NC(=O)c3ccc(N4CCN(CC5=C(c6ccc(Cl)cc6)CC(C)(C)CC5)CC4)cc3Oc3cnc4[nH]ccc4c3)cc2[N+](=O)[O-])CC1 [A-1211212],% Inhibition of Control Values (Mean n=2),[1],-72.6%
same,% Inhibition of Control Specific Binding (Mean n=2),[2],-6.1%
same,% Inhibition of Control Specific Binding (Mean n=2),[3],-1%
same,% Inhibition of Control Specific Binding (Mean n=2),[4],9.7%
same,residual activity,[5],100%
same,residual activity,[6],100%
same,residual activity,[7],83%
same,residual activity,[8],93%
same,residual activity,[9],94%
same,residual activity,[10],93%
same,residual activity,[11],100%
same,residual activity,[12],91%
same,residual activity,[13],89%
same,residual activity,[14],84%
same,residual activity,[15],91%
same,residual activity,[16],61%
same,residual activity,[17],84%
same,residual activity,[18],100%
same,residual activity,[19],100%
same,residual activity,[20],88%
same,residual activity,[21],100%
same,residual activity,[22],100%
same,residual activity,[23],100%
same,residual activity,[24],88%
same,residual activity,[25],100%
same,residual activity,[26],66%
same,residual activity,[27],89%
same,residual activity,[28],95%
same,residual activity,[29],90%
same,residual activity,[30],78%
same,residual activity,[31],100%
same,residual activity,[32],75%
same,residual activity,[33],96%
same,residual activity,[34],70%
same,residual activity,[35],76%
same,residual activity,[36],100%
same,residual activity,[37],91%
same,residual activity,[38],99%
same,residual activity,[39],67%
same,residual activity,[40],79%
same,residual activity,[41],100%
same,residual activity,[42],98%
same,residual activity,[43],97%
same,inhibition,Rattus norvegicus,41.5%

# — ChEMBL document CHEMBL4507310, “Data for DCP probe A-1211212” (2021)
